# Where two headings read alike, the source gives them in different places.
# Tests used:
# PAR4 [1] = biological target: T1, PAR4 (Homo sapiens, UniProt Q96RI0); assay: PAR4-AP stimulated PAC-1 binding, flow cytometry; assay type: cell-based
# T1 sequence (Q96RI0 18-385): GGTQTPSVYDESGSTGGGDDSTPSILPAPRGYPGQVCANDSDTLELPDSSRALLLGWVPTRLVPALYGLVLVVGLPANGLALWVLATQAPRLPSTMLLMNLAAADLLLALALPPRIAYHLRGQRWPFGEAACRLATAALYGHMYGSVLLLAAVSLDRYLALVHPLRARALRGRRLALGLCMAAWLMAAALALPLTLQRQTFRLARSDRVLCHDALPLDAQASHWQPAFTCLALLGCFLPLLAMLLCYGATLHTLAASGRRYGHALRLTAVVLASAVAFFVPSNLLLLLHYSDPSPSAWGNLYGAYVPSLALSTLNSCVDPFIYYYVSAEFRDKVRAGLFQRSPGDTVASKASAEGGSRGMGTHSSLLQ
# PAR4 [2] = biological target: T2, PAR4 (Homo sapiens, UniProt Q96RI0); assay: γ-thrombin stimulated PAC-1 binding, flow cytometry; assay type: cell-based
# T2 sequence (Q96RI0 48-385 limits assumed): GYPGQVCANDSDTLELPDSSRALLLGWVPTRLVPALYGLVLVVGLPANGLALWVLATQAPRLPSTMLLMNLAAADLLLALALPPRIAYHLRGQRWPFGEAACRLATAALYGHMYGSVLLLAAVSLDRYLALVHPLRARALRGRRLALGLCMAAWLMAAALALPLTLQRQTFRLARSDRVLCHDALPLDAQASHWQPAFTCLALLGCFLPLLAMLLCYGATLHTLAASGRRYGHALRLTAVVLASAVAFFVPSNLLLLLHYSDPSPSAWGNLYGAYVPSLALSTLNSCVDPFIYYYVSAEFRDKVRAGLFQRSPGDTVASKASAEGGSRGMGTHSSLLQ
# collagen receptor = assay: Platelet aggregation, collagen I activation; assay type: cell-based, human; conditions: 10 μg/ml collagen I; antagonist at micromolar concentrations
# PAR4 [3] = biological target: T1, PAR4; assay: Progressive fold-shift; assay type: cell-based; conditions: for mode of PAR4 inhibition: progressive fold-shift, parallel right-ward shift of CRC
# PAR4 [4] = biological target: T1, PAR4; conditions: cited from earlier work
Schild EC50 log DR-1 versus log [antagonist] plot slope (PAR4 [3]),mode of PAR4 inhibition (PAR4 [3]),SMILES,further results
,,COc1nn2cc(-c3cc4cc(OC(F)(F)F)ccc4n3C)nc2s1 [compound 5],fold more potent than 1 against AP (PAR4 [1]): ~ 9 fold; γ-thrombin ligand efficiency (LE) (PAR4 [2]): 0.33; off-target effects on the collagen receptor (collagen I induced aggregation) (collagen receptor): eliminated
1.09±1.3,competitive,COc1nn2cc(-c3ccc(Cl)cc3)nc2s1 [4k],
,,COc1cc(OCc2csc(-c3ccccc3)n2)c2cc(-c3cn4nc(OC)sc4n3)oc2c1 [compound 2],mode of PAR4 inhibition (PAR4 [4]): mixed competitive/non-competitive
0.95±0.09,competitive,COc1nn2cc(-c3ccc(C(F)(F)F)cc3)nc2s1 [4c],
0.94±0.08,competitive,COc1nn2cc(-c3ccc(OC(F)(F)F)cc3)nc2s1 [4n],
,,CNc1nn2cc(-c3c(F)cccc3F)nc2s1 [NHCH3 derivative],PAR4 inhibitory activity (PAR4 [1]; result in words): inactive
,,"COc1nn2cc(-c3cc4ccccc4o3)nc2s1 [compound 3, 6-(benzofuran-2-yl)-2-methoxyimidazo[2,1-b][1,3,4]thiadiazole]",off-target effects on the collagen receptor (collagen I induced aggregation) (collagen receptor): devoid

# From publication PMC5340293 (Bioorganic & medicinal chemistry letters, 2016)
